Results taken from patent publication US10004732B2 (Novartis AG, priority 2014, dated 2018).
Counter-ions that a name gives are not always drawn.

Tests used:
PI 3-kinase alpha [1] = target: T1, PI 3-kinase alpha (Homo sapiens, UniProt P42336); assay: Kinase Glo Luminescent Kinase Assay (Kglo), assay A; assay type: biochemical; conditions: read-out: Assay A PI3Kα IC50
PI 3-kinase delta [2] = target: T2, PI 3-kinase delta (Homo sapiens, UniProt O00329); assay: Cellular assay J1, p-Akt (S473) in Rat-1 cells, Surefire format; assay type: cell-based; conditions: non-asterisked data: version J1 (Surefire format), Rat-1 cells; read-out: Assay J PI3Kδ IC50
Target sequence in this assay (O00329 whole entry): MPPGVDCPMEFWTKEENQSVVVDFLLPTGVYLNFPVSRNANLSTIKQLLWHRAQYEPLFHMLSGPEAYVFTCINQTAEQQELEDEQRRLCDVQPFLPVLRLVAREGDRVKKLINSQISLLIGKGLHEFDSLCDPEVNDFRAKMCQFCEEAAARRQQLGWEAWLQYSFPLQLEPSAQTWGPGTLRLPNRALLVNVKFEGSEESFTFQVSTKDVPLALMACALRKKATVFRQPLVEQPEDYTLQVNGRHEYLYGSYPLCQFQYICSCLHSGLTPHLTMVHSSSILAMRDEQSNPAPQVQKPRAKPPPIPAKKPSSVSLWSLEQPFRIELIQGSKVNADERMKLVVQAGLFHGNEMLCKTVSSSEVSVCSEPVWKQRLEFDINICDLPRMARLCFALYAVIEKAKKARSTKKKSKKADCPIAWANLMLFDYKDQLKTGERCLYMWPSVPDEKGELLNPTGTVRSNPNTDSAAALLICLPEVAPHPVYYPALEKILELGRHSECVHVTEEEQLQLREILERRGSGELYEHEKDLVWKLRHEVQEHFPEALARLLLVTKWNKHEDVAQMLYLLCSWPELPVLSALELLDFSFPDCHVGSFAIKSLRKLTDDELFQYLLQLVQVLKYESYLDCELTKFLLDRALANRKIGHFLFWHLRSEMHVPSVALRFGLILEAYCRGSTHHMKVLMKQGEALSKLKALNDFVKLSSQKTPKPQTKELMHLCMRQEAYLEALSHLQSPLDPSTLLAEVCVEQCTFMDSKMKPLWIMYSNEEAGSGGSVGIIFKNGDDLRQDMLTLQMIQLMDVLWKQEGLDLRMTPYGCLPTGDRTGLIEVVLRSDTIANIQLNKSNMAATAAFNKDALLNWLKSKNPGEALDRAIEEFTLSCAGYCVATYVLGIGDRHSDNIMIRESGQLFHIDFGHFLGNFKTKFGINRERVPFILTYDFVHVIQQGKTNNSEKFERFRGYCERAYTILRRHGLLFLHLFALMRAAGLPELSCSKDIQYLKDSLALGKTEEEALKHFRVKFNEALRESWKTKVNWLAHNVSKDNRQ
Target sequence in this assay (Q63787 whole entry partner): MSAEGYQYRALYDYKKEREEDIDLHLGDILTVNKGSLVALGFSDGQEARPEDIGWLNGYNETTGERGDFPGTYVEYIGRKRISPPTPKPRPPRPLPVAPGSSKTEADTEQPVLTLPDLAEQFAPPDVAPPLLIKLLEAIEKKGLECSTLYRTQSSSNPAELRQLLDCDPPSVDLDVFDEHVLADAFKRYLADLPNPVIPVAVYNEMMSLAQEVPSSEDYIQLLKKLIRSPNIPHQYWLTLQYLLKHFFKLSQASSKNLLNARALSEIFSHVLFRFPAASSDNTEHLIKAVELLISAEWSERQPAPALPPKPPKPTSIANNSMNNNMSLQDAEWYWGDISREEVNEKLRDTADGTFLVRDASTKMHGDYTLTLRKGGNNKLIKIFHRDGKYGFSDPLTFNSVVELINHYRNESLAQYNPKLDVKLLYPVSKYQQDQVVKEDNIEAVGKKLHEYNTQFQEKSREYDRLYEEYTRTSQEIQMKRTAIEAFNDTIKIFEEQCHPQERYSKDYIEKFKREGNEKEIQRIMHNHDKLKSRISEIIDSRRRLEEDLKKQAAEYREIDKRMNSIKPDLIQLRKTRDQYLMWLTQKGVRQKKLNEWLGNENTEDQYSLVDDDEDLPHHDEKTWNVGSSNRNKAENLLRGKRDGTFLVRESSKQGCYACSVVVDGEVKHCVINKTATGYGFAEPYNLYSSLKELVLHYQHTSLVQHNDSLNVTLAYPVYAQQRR

PI 3-kinase gamma [3] = target: T3, PI 3-kinase gamma (Homo sapiens, UniProt P48736); assay: TR-FRET Adapta assay, assay E; assay type: biochemical; conditions: read-out: Assay E PI3Kγ IC50
T3 sequence (P48736 whole entry): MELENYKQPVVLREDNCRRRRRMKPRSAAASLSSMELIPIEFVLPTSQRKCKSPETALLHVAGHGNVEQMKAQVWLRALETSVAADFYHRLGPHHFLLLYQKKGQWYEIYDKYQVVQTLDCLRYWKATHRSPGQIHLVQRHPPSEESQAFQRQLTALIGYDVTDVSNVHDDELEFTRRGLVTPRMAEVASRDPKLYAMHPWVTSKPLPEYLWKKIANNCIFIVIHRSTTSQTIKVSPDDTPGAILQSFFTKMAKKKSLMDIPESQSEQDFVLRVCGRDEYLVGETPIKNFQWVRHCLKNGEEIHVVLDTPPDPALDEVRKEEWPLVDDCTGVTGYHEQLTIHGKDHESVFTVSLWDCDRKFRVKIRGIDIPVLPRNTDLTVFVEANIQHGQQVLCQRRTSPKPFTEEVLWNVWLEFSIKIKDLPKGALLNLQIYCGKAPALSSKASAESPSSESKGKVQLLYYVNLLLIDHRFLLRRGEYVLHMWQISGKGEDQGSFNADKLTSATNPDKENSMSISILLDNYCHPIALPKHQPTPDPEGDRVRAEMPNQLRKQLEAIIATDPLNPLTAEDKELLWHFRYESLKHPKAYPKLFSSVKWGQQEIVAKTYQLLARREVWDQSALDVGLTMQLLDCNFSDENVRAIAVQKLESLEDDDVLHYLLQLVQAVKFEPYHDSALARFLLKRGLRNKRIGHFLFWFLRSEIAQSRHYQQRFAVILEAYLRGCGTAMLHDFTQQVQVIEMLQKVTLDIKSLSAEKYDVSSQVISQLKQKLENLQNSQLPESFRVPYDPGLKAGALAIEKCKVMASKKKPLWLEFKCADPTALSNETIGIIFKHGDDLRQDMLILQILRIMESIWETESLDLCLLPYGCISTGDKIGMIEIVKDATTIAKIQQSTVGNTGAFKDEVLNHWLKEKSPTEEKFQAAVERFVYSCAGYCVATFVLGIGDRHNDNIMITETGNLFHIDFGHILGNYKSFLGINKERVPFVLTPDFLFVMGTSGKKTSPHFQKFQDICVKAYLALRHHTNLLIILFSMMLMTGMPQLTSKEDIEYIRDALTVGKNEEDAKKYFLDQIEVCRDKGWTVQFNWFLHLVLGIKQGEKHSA

mTOR = mTOR (Homo sapiens, UniProt P42345); assay: Lanthascreen kinase binding assay, assay G; conditions: read-out: Assay G mTOR IC50
Procedure: Lanthascreen™ Kinase Binding Assay for mTOR (G)
Binding of an inhibitor to the kinase competes for binding with the tracer, resulting in a loss of FRET.
50 nL of compound dilutions were dispensed onto white 384-well small volume polystyrene plate.

[4] = test system: IL-8-induced neutrophil shape change in human whole blood; assay: Whole blood neutrophil shape change assay (L); assay type: cell-based; conditions: Homo sapiens, Neutrophil, IL-8, human whole blood, read-out: Assay L WBSC IC50
PI 3-kinase gamma [5] = target: T3, PI 3-kinase gamma; assay: Cellular U937 AKT assay K1 (MSD); assay type: cell-based; conditions: U937 cells, K1 format; read-out: Assay K1 PI3Kγ IC50
PI 3-kinase delta [6] = target: T2, PI 3-kinase delta; assay: TR-FRET Adapta assay, assay F
Target sequence in this assay (O00329 whole entry): as the sequence (O00329 whole entry) above
Target sequence in this assay (P27986 461-568 partner): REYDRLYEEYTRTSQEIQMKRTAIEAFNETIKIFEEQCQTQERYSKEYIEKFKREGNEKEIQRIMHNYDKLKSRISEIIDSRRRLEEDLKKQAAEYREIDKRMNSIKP

Vps34 = Vps34 (Homo sapiens, UniProt Q8NEB9); assay: Kinase Glo Luminescent Kinase Assay (Kglo), assay C; assay type: biochemical; conditions: read-out: Assay C VPS34 IC50
PI 3-kinase gamma [7] = target: T3, PI 3-kinase gamma; assay: Cellular U937 AKT assay K2 (HTRF); assay type: cell-based; conditions: U937 cells, K2 format; read-out: Assay K2 PI3Kγ IC50
Procedure: In assays K1 and K2, the compounds were tested for their ability to inhibit the production of phosphorylated AKT (Protein Kinase B) generated in a PI 3-kinase gamma isoform-dependent process in a U937 human cell line.
Cellular U937 AKT Assay for PI 3-Kinase Gamma (K2)
U937 cells are split every 3-4 days: 5×10^6 cells/flask (175 cm^2) in 40 ml.
Semi-automated preparation of cell lysates: Cells were resuspended in HBSS, seeded (200′000 cells/well/60 μl) into a 384-well plate and incubated in a humidified 37° C., 5% CO2 incubator for 1.5 hours. The compounds were diluted with HBSS and 40 μl were added to the starved cells (except for wells 24 I-P). […] The cells were then incubated for 30 minutes at 37° C. and 5% CO2. Stimulation occurred during 3 minutes by addition of 20 μl MIP1α (final 10 ng/ml, diluted in HBSS) in the incubator. Wells 24 A-H were only stimulated with HBSS.
The stimulation was then stopped by putting the cell plates on ice (filled with cold water). The cells were then centrifuged at 1200 rpm and 4° C. for 3 minutes.
80 μl of supernatant was removed. The cells were again centrifuged at 1200 rpm and 4° C. for 3 minutes. The supernatant was then removed by turning plates upside down and 30 μl of lysis buffer were added. The plate was incubated at room temperature for 30 minutes under shaking. 16 μl were then transferred to a ProxiPlate Plus 384-well. 4 μl of the master mix (each conjugate diluted 1:20 with detection reagent) were added to each well and the plate was kept in the dark at room temperature for 4 hours.

PI 3-kinase beta [8] = target: T4, PI 3-kinase beta (Homo sapiens, UniProt P42338); assay: Kinase Glo Luminescent Kinase Assay (Kglo), assay B; assay type: biochemical; conditions: read-out: Assay B PI3Kβ IC50
Target sequence in this assay (P42338 whole entry): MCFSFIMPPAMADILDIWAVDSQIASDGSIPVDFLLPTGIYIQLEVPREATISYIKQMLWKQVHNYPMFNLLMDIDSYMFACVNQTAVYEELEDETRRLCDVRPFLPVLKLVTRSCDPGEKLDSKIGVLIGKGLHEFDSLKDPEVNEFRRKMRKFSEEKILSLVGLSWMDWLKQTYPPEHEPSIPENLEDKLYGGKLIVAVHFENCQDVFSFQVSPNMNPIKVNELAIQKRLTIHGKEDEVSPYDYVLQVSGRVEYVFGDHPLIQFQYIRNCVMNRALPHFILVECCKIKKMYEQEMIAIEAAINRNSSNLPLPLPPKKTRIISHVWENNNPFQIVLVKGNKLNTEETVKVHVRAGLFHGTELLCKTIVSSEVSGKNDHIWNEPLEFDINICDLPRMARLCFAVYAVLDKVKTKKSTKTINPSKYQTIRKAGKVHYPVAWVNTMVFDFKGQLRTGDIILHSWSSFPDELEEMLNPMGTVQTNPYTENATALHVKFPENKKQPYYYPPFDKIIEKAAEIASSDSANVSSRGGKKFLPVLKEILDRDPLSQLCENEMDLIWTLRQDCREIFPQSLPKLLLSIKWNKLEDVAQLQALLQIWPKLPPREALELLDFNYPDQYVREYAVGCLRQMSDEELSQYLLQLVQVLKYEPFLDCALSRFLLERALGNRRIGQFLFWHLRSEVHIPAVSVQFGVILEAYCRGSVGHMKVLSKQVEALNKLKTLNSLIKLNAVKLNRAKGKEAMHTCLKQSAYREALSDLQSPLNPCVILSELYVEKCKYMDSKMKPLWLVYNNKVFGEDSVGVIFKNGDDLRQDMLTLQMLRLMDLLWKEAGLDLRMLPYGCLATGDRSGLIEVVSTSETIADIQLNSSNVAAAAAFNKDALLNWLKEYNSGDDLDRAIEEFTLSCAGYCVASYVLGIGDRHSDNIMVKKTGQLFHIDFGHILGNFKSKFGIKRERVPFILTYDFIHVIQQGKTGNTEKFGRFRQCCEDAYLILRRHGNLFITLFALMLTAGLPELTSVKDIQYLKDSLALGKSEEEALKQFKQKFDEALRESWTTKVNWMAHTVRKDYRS
Target sequence in this assay (P27986 461-568 partner): as the sequence (P27986 461-568 partner) above
Procedure: Kinase Glo Luminescent Kinase Assay (Kglo) for Pb 3-Kinase Alpha (A), Pb 3-Kinase Beta (B), Vps34 (C), Pb 4-Kinase Beta (D)
The Kinase Glo Luminescent Kinase Assay (Promega, Madison/Wis., USA) is a homogeneous HTS method of measuring kinase activity by quantifying the amount of ATP remaining in solution following a kinase reaction.
L-α-phosphatidylinositol (PI), provided as 10 mg/ml solution in methanol, was transferred into a glass tube and dried under a nitrogen beam. It was then resuspended in 3% OctylGlucoside (1-0-n-octyl-beta-D-glucopyranoside) by vortexing and stored at 4° C. 5 μL of a mix of PI/OctylGlucoside with the PI 3-kinase alpha and PI 3-kinase beta subtypes, or Vps34 or PI 4-kinase beta were added. Kinase reactions were started by the addition of 5 μl of an ATP-mix containing in a final volume 10 μL 10 mM TRIS-HCl pH 7.5, 3 mM MgCl2, 50 mM NaCl, 0.05% CHAPS, 1 mM DTT and 1 μM ATP at room temperature.
All fits were performed with the program XLfit4 (ID Business Solutions, Guildford, UK).

PI 3-kinase beta [9] = target: T4, PI 3-kinase beta; assay: Cellular assay I1, p-Akt (S473) in Rat-1 cells, Surefire format; assay type: cell-based; conditions: non-asterisked data: version I1 (Surefire format), Rat-1 cells; read-out: Assay I PI3Kβ IC50
Target sequence in this assay (P42338 whole entry): as the sequence (P42338 whole entry) above
Target sequence in this assay (Q63787 whole entry partner): as the sequence (Q63787 whole entry partner) above

PI 3-kinase alpha [10] = target: T1, PI 3-kinase alpha; assay: Cellular assay H1, p-Akt (S473) in Rat-1 cells, Surefire format; assay type: cell-based; conditions: non-asterisked data: version H1 (Surefire format), Rat-1 cells; read-out: Assay H PI3Kα IC50
PI 4-kinase beta = PI 4-kinase beta (Homo sapiens, UniProt Q9UBF8); assay: Kinase Glo Luminescent Kinase Assay (Kglo), assay D; assay type: biochemical; conditions: read-out: Assay D PI4Kβ IC50
Sequence of PI 4-kinase beta (Q9UBF8 whole entry): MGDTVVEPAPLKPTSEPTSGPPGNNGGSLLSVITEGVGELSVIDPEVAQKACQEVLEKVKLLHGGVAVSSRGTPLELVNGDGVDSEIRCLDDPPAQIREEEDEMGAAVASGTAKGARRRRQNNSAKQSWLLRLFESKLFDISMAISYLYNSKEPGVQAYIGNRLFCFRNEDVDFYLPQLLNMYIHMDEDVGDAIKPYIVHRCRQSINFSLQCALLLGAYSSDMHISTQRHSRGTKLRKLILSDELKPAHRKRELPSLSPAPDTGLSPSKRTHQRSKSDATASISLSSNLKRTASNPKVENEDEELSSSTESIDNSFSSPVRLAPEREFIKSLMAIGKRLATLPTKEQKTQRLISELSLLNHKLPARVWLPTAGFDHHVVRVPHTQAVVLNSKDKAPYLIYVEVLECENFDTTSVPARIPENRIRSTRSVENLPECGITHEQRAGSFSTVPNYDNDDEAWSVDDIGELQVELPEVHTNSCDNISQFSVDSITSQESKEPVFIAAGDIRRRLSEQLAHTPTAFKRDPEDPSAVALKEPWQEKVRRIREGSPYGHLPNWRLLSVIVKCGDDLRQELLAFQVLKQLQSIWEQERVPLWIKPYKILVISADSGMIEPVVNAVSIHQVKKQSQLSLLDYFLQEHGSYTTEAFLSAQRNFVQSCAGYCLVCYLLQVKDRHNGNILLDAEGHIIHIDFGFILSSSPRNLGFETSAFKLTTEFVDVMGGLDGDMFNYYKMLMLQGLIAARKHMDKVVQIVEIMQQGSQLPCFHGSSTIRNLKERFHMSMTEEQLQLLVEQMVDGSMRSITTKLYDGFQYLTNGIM

[11] = Microsomal clearance assay (M); conditions: intrinsic clearance in rat liver microsomes
Procedure: The experiments were performed in 96-well glass plates at 37° C. on an automated Tecan EVO platform. Test compounds at a concentration of 10 mM in pure DMSO were diluted 1:1000 in water to 10 μM. […] Reactions were initiated by the addition of 150 μL of a cofactor solution containing 2 mM NADPH.

Row | Structure (SMILES) | IC50 (PI 3-kinase alpha [1]) | IC50 (PI 3-kinase delta [2]) | IC50 (PI 3-kinase gamma [3]) | IC50 (mTOR) | IC50 [4] | IC50 (PI 3-kinase gamma [5]) | IC50 (PI 3-kinase delta [6]; read-out: Assay F PI3Kδ IC50) | IC50 (Vps34) | IC50 (PI 3-kinase gamma [7]) | IC50 (PI 3-kinase beta [8]) | IC50 (PI 3-kinase beta [9]) | IC50 (PI 3-kinase alpha [10]) | IC50 (PI 4-kinase beta) | Assay M RLM CI(int) [11] | IC50 (PI 3-kinase delta [6])
1 | Cc1cc(F)c(S(=O)(=O)NCC(C)(C)O)cc1-c1cnc(N)c(-n2cncn2)n1 [Example 122, 5-(5-Amino-6-(1H-1,2,4-triazol-1-yl)pyrazin-2-yl)-2-fluoro-N-(2-hydroxy-2-methylpropyl)-4-methylbenzenesulfonamide] | 490 nM | 1190 nM | 85 nM | 6600 nM | 988 nM | 151 nM | 1600 nM | > 10000 nM | 296 nM | 2200 nM | 1490 nM | 2280 nM | 1900 nM | 26 µL/min/mg | 
2 | Cc1ccc(S(=O)(=O)NCC(C)(C)O)cc1-c1cnc(N)c(-n2cnc(CN(C)C)n2)n1 [Example 117, 3-(5-Amino-6-(3-((dimethylamino)methyl)-1H-1,2,4-triazol-1-yl)pyrazin-2-yl)-N-(2-hydroxy-2-methylpropyl)-4-methylbenzenesulfonamide hydrochloride salt] | 900 nM | > 10000 nM | 36 nM | > 10000 nM | 727 nM | 577 nM |  | > 10000 nM | 945 nM | > 10000 nM | > 3000 nM | > 10000 nM | > 10000 nM | 85 µL/min/mg | 
3 | Cc1ccc(S(=O)(=O)NCCC(C)(C)O)cc1-c1cnc(N)c(-c2cscn2)n1 [Example 108, 3-(5-Amino-6-(thiazol-4-yl)pyrazin-2-yl)-N-(3-hydroxy-3-methylbutyl)-4-methylbenzenesulfonamide] | 310 nM | 410 nM | 38 nM | > 10000 nM | 5560 nM | 58 nM | 330 nM |  | 163 nM | 260 nM | 3010 nM | 5780 nM | 640 nM | 112 µL/min/mg | 
4 | Cc1ccc(S(=O)(=O)NCC2(O)CCCC2)cc1-c1cnc(N)c(-n2cncn2)n1 [Example 127.35] | 330 nM | > 10000 nM | 50 nM | 7100 nM | 847 nM | 85 nM | 810 nM | > 10000 nM | 391 nM | 1100 nM | 2050 nM | > 10000 nM | 6300 nM | 202 µL/min/mg | 
5 | Cc1ccc(S(=O)(=O)NCC2(C)COC2)cc1-c1cnc(N)c(-n2cncn2)n1 [Example 29, 3-(5-Amino-6-[1,2,4]triazol-1-yl-pyrazin-2-yl)-4-methyl-N-(3-methyl-oxetan-3-ylmethyl)-benzenesulfonamide] | 1300 nM | 6610 nM | 9 nM | > 9100 nM | 956 nM | 206 nM | 910 nM | > 9100 nM | 314 nM | 6800 nM | 8080 nM | 4630 nM | 5200 nM | 62 µL/min/mg | 
6 | Cc1ccc(S(=O)(=O)NCC(C)(C)O)cc1-c1cnc(N)c(-c2cnc(C3CC3)s2)n1 [Example 21, 3-[5-Amino-6-(2-cyclopropyl-thiazol-5-yl)-pyrazin-2-yl]-N-(2-hydroxy-2-methyl-propyl)-4-methyl-benzenesulfonamide] | 40 nM | 460 nM | 6 nM | 690 nM | 244 nM | 18 nM | 80 nM | 1400 nM | 90 nM | 150 nM | 590 nM | 510 nM | 1500 nM | 109 µL/min/mg | 
7 | Cc1ncc(-c2nc(-c3cc(S(=O)(=O)NC[C@H]4C[C@@H](O)C4)ccc3C)cnc2N)s1 [Example 20a, cis-3-[5-Amino-6-(2-methyl-thiazol-5-yl)-pyrazin-2-yl]-N-(3-hydroxy-cyclobutylmethyl)-4-methyl-benzenesulfonamide] | 30 nM | 420 nM | 7 nM | 1880 nM | 232 nM | 11 nM |  | > 9100 nM | 23 nM | 1060 nM | 1430 nM | 720 nM | 5280 nM | 55 µL/min/mg | 50 nM
8 | Cc1ncn(-c2nc(-c3cc(S(=O)(=O)NCC(C)(C)O)ccc3C)cnc2N)n1 [Example 25, 3-[5-Amino-6-(3-methyl-[1,2,4]triazol-1-yl)-pyrazin-2-yl]-N-(2-hydroxy-2-methyl-propyl)-4-methyl-benzenesulfonamide] | 620 nM | 1390 nM | 79 nM | 210 nM | 742 nM | 153 nM | 1030 nM | > 10000 nM | 2340 nM | 3150 nM | 1700 nM | 2190 nM | > 10000 nM | 71 µL/min/mg | 
9 | Cc1ccc(S(=O)(=O)N[C@H]2CC[C@H](O)CC2)cc1-c1cnc(N)c(-c2cccnc2)n1 [Example 22, Trans-3-(5-Amino-6-pyridin-3-yl-pyrazin-2-yl)-N-(4-hydroxy-cyclohexyl)-4-methyl benzenesulfonamide] | 760 nM | 4690 nM | 44 nM | 8020 nM | 256 nM | 164 nM | 420 nM | > 9100 nM | 100 nM | 5710 nM | > 10000 nM | 6670 nM | 7080 nM | 47 µL/min/mg | 
10 | Cc1ccc(S(=O)(=O)NC[C@H]2COCCN2)cc1-c1cnc(N)c(-c2cn(C)nc2C)n1 [Example 128.7, (S)-3-(5-Amino-6-(1,3-dimethyl-1H-pyrazol-4-yl)pyrazin-2-yl)-4-methyl-N-(morpholin-3-ylmethyl)benzenesulfonamide] | 220 nM | > 10000 nM | 79 nM |  | 826 nM | 249 nM | 690 nM | > 10000 nM | 117 nM | 1900 nM | > 10000 nM | > 10000 nM | > 10000 nM | 20 µL/min/mg | 
11 | Cc1ccc(S(=O)(=O)NCC2(CO)COC2)cc1-c1cnc(N)c(-c2cn(C)nc2C)n1 [Example 128, 3-(5-Amino-6-(1,3-dimethyl-1H-pyrazol-4-yl)pyrazin-2-yl)-N-((3-(hydroxymethyl)oxetan-3-yl)methyl)-4-methylbenzenesulfonamide] | 150 nM | > 10000 nM | 14 nM |  | 2990 nM | 209 nM | 100 nM | > 10000 nM | 201 nM | 500 nM | 9910 nM | > 10000 nM | 6800 nM | 22 µL/min/mg | 
